{"source": "paper PMC11623267", "about": "“Inhibitors of malaria parasite cyclic nucleotide phosphodiesterases block asexual blood-stage development and mosquito transmission” (Science Advances, 2024)", "key": {"PDEβ": {"target": "T1, PDEβ (Plasmodium falciparum, UniProt Q8I6Z7)", "T1 construct": "endogenous in cells; host or cells: P. falciparum 3D7 schizonts, NP-40 membrane lysate", "T1 sequence (Q8I6Z7 whole entry, the tested form may be a part)": "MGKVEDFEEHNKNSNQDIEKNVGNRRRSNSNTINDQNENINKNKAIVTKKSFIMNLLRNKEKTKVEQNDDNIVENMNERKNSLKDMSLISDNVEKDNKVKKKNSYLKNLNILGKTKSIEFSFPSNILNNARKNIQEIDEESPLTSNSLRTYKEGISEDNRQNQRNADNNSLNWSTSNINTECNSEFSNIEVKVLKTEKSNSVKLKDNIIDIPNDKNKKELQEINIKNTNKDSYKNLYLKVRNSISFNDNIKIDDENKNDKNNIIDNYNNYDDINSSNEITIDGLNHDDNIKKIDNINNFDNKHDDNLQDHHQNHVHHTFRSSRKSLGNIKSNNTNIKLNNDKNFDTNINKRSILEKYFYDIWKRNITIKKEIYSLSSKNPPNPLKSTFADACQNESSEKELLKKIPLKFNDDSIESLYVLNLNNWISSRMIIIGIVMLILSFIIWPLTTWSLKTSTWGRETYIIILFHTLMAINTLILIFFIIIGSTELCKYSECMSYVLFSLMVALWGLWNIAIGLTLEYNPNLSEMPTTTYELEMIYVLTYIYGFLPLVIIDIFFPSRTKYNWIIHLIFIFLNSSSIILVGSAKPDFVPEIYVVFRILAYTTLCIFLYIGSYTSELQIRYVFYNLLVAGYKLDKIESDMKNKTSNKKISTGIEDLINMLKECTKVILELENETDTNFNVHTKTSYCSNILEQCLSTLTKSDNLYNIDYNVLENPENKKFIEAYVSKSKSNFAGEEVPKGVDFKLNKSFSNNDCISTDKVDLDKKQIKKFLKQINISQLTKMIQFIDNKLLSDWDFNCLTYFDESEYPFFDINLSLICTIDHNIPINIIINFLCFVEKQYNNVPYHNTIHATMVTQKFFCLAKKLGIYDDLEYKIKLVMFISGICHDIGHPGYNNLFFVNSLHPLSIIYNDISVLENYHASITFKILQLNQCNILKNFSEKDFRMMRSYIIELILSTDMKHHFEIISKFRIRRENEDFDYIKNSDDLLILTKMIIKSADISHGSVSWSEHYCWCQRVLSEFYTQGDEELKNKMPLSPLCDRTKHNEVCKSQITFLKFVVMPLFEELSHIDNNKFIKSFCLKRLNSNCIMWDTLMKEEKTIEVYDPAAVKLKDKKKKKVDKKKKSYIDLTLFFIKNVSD", "assay": "cAMP hydrolysis SPA in schizont membrane lysates", "type": "biochemical", "details": "read-out: IC50 against PDEβ", "excerpt": "We identified three PDE inhibitor chemical series generated by Pfizer, with structures in the public domain, which have activity against malaria parasites (see the “Chemistry strategy summary” section). These series were originally designed to inhibit human PDEs and were chosen as chemistry start points to optimize activity against malaria parasites. More than 400 new analogs were generated (full details of their properties will be reported in a separate paper, in preparation) through iterative rounds of synthesis and testing. The chemistry start points for each of the series were SAL-0010042 (5-benzyl), SAL-0010043 (5-aryl), and SAL-0010034 (2-alkyl) (see Materials and Methods and fig. S1A). S2. Analytical data for these compounds are provided in data S1. All newly synthesized compounds were tested for inhibition of native cAMP-PDE activity in mature schizont crude membrane preparations and inhibition of P. falciparum ABS growth. S3A. […] The unbound EC50 values for the compounds in the parasite growth inhibition assay were consistently calculated to be sevenfold higher than the IC50 values in the biochemical assay. Given that PDEβ is dual specific (i.e., can hydrolyze both cAMP and cGMP), we also determined IC50 values for cGMP hydrolysis. […] The IC50 values measured for cGMP hydrolysis in blood-stage schizonts were generally similar to those for cAMP hydrolysis (Table 1). […]\n(§1) The cyclic nucleotide hydrolytic activity of membrane-associated parasite PDE enzymes was measured by a scintillation proximity assay (SPA) ([18]) using lysates of mature P. falciparum schizonts or stage IV/V gametocytes. […] The IC50 values for the compounds were determined using threefold serial dilutions in duplicate. […] The reactions were terminated by addition of 25 μl of PDE SPA beads (PerkinElmer, RPNQ0150), and after 20 min of incubation at room temperature, scintillation was measured using a Wallac 1450 Microbeta Counter (PerkinElmer) for 30 s. […]"}, "P. falciparum 3D7": {"test_system": "P. falciparum 3D7", "assay": "P. falciparum 3D7 LDH growth inhibition assay (asexual blood stage)", "type": "cell-based, Plasmodium falciparum", "experimental": "P. falciparum isolates (3D7/Dd2) were obtained from BEI Resources and were cultured using standard procedures as described elsewhere ([47]). Briefly, P. falciparum was grown in RPMI 1640 medium (10.3 g/liter) supplemented with L-glutamine (2 mM), hypoxanthine (150 μM), Hepes (25 mM), D-glucose (12 mM), sodium bicarbonate (25.7 mM), AlbuMAX II (0.5% or 5 g/liter) (pH 7.4), and 2% RBC (type O+, freshly prepared). Cultures were replenished with fresh medium and RBCs every other day. For RBC preparation, whole blood was centrifuged at 415g at room temperature for 12 min. After that, the plasma and buffy coat were removed, and packed RBCs were washed three times with 3 vol of RPMI 1640. Last, RBCs were resuspended in 1:1 vol of complete RPMI 1640 medium (containing 0.5% AlbuMAX II).\nThe P. falciparum 3D7 and Dd2 LDH growth inhibition assay was carried out as described elsewhere ([48]) with minor modification of the parasitological conditions (10 to 15% parasitemia with ≥80% rings). Data were normalized to percent growth inhibition with respect to […] (for 3D7, a mixture of 100 nM chloroquine and 100 nM atovaquone as 100% inhibition; for Dd2, a mixture of 200 nM DHA and 200 nM atovaquone as 100% inhibition) controls."}, "malaria parasites": {"test_system": "malaria parasites", "design": "method as in PMID 25951195, PMID 33262483", "details": "cited from earlier work"}, "P. falciparum ABS": {"test_system": "P. falciparum ABS", "details": "read-out: Median effective dose, P. falciparum ABS growth inhibition; cited from earlier work"}, "[1]": {"test_system": "P. falciparum Dd2-B2 lines selected under drug pressure", "assay": "72-hour flow cytometry EC50 assay, lines selected under drug pressure", "type": "cell-based, Plasmodium falciparum", "details": "for EC50: Plasmodium falciparum", "experimental": "Three examples of an additional compound series developed independently [NPD-2958, NPD-3518 ([31]), and NPD-3738; fig.\n(§2) Stocks of SAL-0010003 (5-benzyl), SAL-0010355 (5-aryl), and SAL-0010419 (2-alkyl) were made at 10 and 1 mM in DMSO. Aliquots in use were stored at −20°C, and long-term storage was at −80°C. All in vitro studies were done such that the final DMSO concentration was <0.5%. P. falciparum ABS parasites were cultured at 3% hematocrit in human O+ RBCs in RPMI 1640 medium, supplemented with 25 mM Hepes, 50 mg L-hypoxanthine, 2 mM L-glutamine, 0.225% sodium bicarbonate, 0.5% (w/v) AlbuMAX II (Invitrogen) and gentamycin (10 μg/ml), in modular incubator chambers (Billups-Rothenberg) at 5% O2, 5% CO2, and 90% N2 at 37°C. Dd2-B2 (obtained from T. Wellems, National Institute of Allergy and Infectious Diseases, National Institutes of Health) is a genetically homogenous line that was cloned from Dd2 by limiting dilution. To define the EC50 and EC90 values of ABS parasites, Dd2-B2 ring-stage cultures at 0.2% parasitemia and 1% hematocrit were exposed for 72 hours to a range of 10 drug concentrations that were twofold serially diluted in duplicates along with drug-free controls. Parasite survival was assessed by flow cytometry on an iQue flow cytometer (Sartorius) using SYBR Green and MitoTracker Deep Red FM (Life Technologies) as nuclear stain and vital dyes, respectively. After determination of the EC50 and EC90 values for the three compounds with the P. falciparum Dd2-B2 clone, one single-step selection was set up using 2 × 10^5 parasites in each well of a 96-well plate at a starting concentration of 3× EC90. Parasites were cleared from the culture rapidly, and cultures were screened three times weekly by flow cytometry and counted as positive for recrudescence when the overall parasitemia reached 0.3% and the parasites were visible on a blood smear. DNA was extracted from recrudescent lines using a QIAGEN QIAamp Blood Mini Kit, and libraries were prepared with the Illumina DNA Prep kit for whole-genome sequencing on the Illumina MiSeq using a V3 2 × 300–base pair flow cell."}, "P. falciparum Dd2-B2": {"test_system": "P. falciparum Dd2-B2", "assay": "72-hour flow cytometry EC50 assay, Dd2-B2 parental line", "type": "cell-based, Plasmodium falciparum", "details": "Plasmodium falciparum, DD2, read-out: EC50 Dd2-B2 parental line", "experimental": "as §2"}, "[2]": {"test_system": "cGMP-PDE activity in gametocyte lysates (PDEα, PDEδ)", "assay": "cGMP hydrolysis SPA in stage IV/V gametocyte membrane lysates", "type": "biochemical, Plasmodium falciparum", "details": "gametocyte lysate; geometric mean ×/÷ geometric SD", "experimental": "cGMP signaling is known to play an essential role in gametogenesis in Plasmodium ([19], [20], [28]). We therefore tested the effects of all newly synthesized analogs for their ability to inhibit cGMP hydrolysis in crude gametocyte membrane preparations. […] S5A. These findings were also consistent with our enzyme-linked immunosorbent assay (ELISA)–based measurement of elevated cGMP levels in gametocytes following incubation with an example of each subseries (Fig. 2A). […] The levels of cAMP detected in gametocytes were similar in dimethyl sulfoxide (DMSO)–, XA-, and inhibitor-treated samples, and we could detect little or no cAMP hydrolysis in mature gametocytes (fig. S5B). […]\nas §1"}}, "note": "Like-named read-outs stand apart in the source and are kept apart here."}
{"smiles": "CCCc1n[nH]c2c(=O)[nH]c(-c3cc(S(=O)(=O)N4CCN(C)CC4)ccc3OCC)nc12", "note": "[des-Me sildenafil, desmethyl (des-Me) sildenafil]", "values": [{"measurement": "IC50", "setting": "PDEβ", "value": 36.7, "unit": "nM"}, {"measurement": "EC50", "setting": "P. falciparum 3D7; Plasmodium falciparum, 3D7, read-out: EC50 against ABS parasites", "value": 415, "unit": "nM"}, {"measurement": "Difference in ABS EC50 vs sildenafil", "setting": "P. falciparum 3D7; des-Me sildenafil vs sildenafil", "value": "> 60", "unit": "fold"}]}
{"smiles": "CN1CC(=O)N2[C@H](c3ccc4c(c3)OCO4)c3[nH]c4ccccc4c3C[C@@H]2C1=O", "note": "[tadalafil]", "values": [{"measurement": "IC50 against malaria parasites", "setting": "malaria parasites", "value": "mid-to-high micromolar range"}]}
{"smiles": "CCCOc1ccccc1-c1nc2nn[nH]c2c(=O)[nH]1", "note": "[zaprinast]", "values": [{"measurement": "EC50", "setting": "P. falciparum ABS", "value": 35000, "unit": "nM"}]}
{"smiles": "CCc1c2nc(-c3cc(-c4cccnc4)cnc3OCC(C)C)[nH]c(=O)c2nn1CCOC", "note": "[SAL-0010419]", "values": [{"measurement": "EC50", "setting": "[1]; DD2, read-out: EC50, line selected with SAL-0010419, Well C4", "value": 360, "unit": "nM"}, {"measurement": "EC50", "setting": "[1]; DD2, read-out: EC50, line selected with SAL-0010419, Well E11", "value": 344, "unit": "nM"}, {"measurement": "EC50", "setting": "[1]; DD2, read-out: EC50, line selected with SAL-0010419, Well F8", "value": 293, "unit": "nM"}, {"measurement": "Mean fold change in EC50", "setting": "[1]; selected lines vs Dd2-B2 parental line, ±SD", "value": "5.4 ± 0.6", "unit": "fold"}, {"measurement": "EC50 shift, line selected with SAL-0010419, Well C4", "setting": "[1]; vs Dd2-B2", "value": 5.9, "unit": "fold"}, {"measurement": "EC50 shift, line selected with SAL-0010419, Well E11", "setting": "[1]; vs Dd2-B2", "value": 5.6, "unit": "fold"}, {"measurement": "EC50 shift, line selected with SAL-0010419, Well F8", "setting": "[1]; vs Dd2-B2", "value": 4.8, "unit": "fold"}, {"measurement": "EC50", "setting": "P. falciparum Dd2-B2", "value": 61.4, "unit": "nM"}, {"measurement": "IC50", "setting": "[2]", "value": "> 10000", "unit": "nM"}]}
